These results are taken from patent US9486449B2, “Cancer therapy” (priority 2007, dated 2016).

“And” between values parts separate entries of the source, which are not always exact repeats. Identical values can stand only once. Counter-ions that a name gives are not always drawn. Bounds are passed on as bounds.

One series has as its system α-tubulin with γ-tubulin. As to the kind of experiment: Co-immunoprecipitation of α-tubulin with γ-tubulin in cancer cells. Format: cell-based.
Series [1] deals with T1, binding of γ-tubulin to kinesin-14/HSET (Homo sapiens, UniProt Q9BW19).
T1 sequence (Q9BW19 1-673): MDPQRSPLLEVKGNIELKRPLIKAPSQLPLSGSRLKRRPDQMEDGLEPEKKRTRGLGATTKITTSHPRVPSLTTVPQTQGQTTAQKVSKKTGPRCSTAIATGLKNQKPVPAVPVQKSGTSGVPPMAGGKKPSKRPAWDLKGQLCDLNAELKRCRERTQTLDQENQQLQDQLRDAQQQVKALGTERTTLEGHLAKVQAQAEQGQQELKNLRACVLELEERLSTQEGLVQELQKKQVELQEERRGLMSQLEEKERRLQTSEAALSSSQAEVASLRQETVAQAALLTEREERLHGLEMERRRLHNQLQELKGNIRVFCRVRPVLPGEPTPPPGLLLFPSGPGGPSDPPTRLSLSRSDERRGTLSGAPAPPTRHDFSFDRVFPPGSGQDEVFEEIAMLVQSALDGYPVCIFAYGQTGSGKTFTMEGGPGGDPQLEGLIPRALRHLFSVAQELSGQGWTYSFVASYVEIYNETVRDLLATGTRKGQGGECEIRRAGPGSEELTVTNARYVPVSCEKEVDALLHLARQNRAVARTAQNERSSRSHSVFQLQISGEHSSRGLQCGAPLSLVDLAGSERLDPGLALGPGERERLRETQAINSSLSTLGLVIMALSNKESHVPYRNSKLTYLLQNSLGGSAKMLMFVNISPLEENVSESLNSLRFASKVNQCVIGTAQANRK
As to the kind of experiment: Co-IP of kinesin-14/HSET with γ-tubulin in MDA-MB-231 cells. The class given is cell-based. The following applies: 48 hours, PJ-34 20 μM, Tiq-A 100 μM, Phen(6) 50 μM. The text has this:
Thus, PJ-34, Tiq-A and Phen interfered with the co-immunoprecipitation of HSET with γ-tubulin.

Another series concerns the target PARP-1 (Homo sapiens, UniProt P09874). The following applies: cited from earlier work; for EC50: read-out: EC50 for PARP1 inhibition.
For another series, the system named is MCF-7 brca1+/+ cells. The following applies: 10 μM, 10 consecutive days; cited from earlier work.
For series [2], the system named is CAPANI cells (which are deficient in brca2). The following applies: cited from earlier work.
A short description of series [3]: Tolerability of slow-release PJ-34 in nude mice. The class given is in vivo. On the procedure:
. In vivo experiments were carried out in nude female mice (nu/nu) injected subcutaneously with MCF-7 or MDA-MB-231 cells (FIG. 15). […]. In the control nude mice, pumps contained only PBS, or pumps were not implanted. Each mouse was injected subcutaneously with approximately 10^7 MCF-7 or MDA-MB-231 cells dispersed in Matrigel. Tumors developed within 6 to 7 weeks in the control mice injected with MCF-7 cells and within 10 days in the control mice injected with MDA231 cells. One mouse died 3 weeks after being injected with MDA-MB-231 cells. […]

The subject of the next series is U-87 Glioblastoma cells. As to the kind of experiment: Viability of U-87 glioblastoma cells (FACS). The class given is cell-based, human. Particulars: 0.5-30 μM, single application; 72 and 96 h (PJ-34), 96 h (Phen, Tiq-A). On the procedure:
The malignant U-87 Glioblastoma cells were incubated with these molecules applied once 24 hours after seeding. Cell viability was measured by FACS. The results of 3 different experiments carried in duplicates are presented.

Series [4] concerns extra-centrosomes de-clustering in human cancer cells. The series is described as follows: Extra-centrosomes de-clustering. Format: cell-based.
Series [5] deals with MDA-MB-231 xenotransplants. As to the kind of experiment: MDA-MB-231 xenotransplants in nude mice, PJ-34 by subcutaneous osmotic pump. The class given is in vivo, mouse. Particulars: PJ-34 treated, tumor-free mice. The method, then:
Xenotransplants were developed in female CD-1 nu/nu 5 to 6 weeks old. MCF-7 and MDA 231 cells were injected subcutaneously, about 10^7 MCF-7 or MDA231 cells in 150 μl of PBS and 150 μl of Martigel Basement Membrane Matrix Becton Dickinson, Bedford, Mass., USA; In Israel Bactolab Diagnostics). In mice treated with PJ-34, injection was adjacent to subcutaneous osmotic pumps dripping PJ-34 by a slow release. The mice were maintained under specific pathogen-free conditions with access to mouse chow and water ad libitum. […]. Subcutaneous implantation of these pumps was performed before injection by a veterinarian (Dr. Kastel David). All the experiments with nude mice conform to the Guide for the Care and Use of Laboratory Animals published by the NIH (publication No. 85-23, revised 1996). Approval was granted by the Israeli Ministry of Health ethics review board in the Tel-AvivUniversity (M08033).
In vivo experiments were carried out in nude female mice (nu/nu) injected subcutaneously with MCF-7 or MDA-MB-231 cells (FIG. 15). […]. In the control nude mice, pumps contained only PBS, or pumps were not implanted. Each mouse was injected subcutaneously with approximately 10^7 MCF-7 or MDA-MB-231 cells dispersed in Matrigel. Tumors developed within 6 to 7 weeks in the control mice injected with MCF-7 cells and within 10 days in the control mice injected with MDA231 cells. […]

The test system of series [6] is MDA-MB-231 xenotransplants. The series is described as follows: MDA-MB-231 xenotransplants in nude mice, PJ-34 intra-peritoneal. The class given is in vivo, mouse. The following applies: 50 mg/kg PJ-34 i.p. daily for 14 days, started at palpable tumors; individual treated mice (untreated 750 and 850); HCl. The method, then:
In vivo experiments were carried out in nude female mice (nu/nu) injected subcutaneously with MDA-MB-231 cells (FIG. 32). […] About 10^6 cells were injected in 100 μl of MEM (Gibco, Rhenium, Jerusalem Israel) and 100 μl of Matrigel Basement Membrane Matrix (Becton Dickinson, Bedford, Mass., USA; In Israel, Bactolab Diagnostics). Two weeks after injection with MDA-MB-231 cells, palpable (50-80 mm^3) tumors developed in all the female nude mice. One pair of mice remained un-treated. […] Tumors' size was measured every day in all the mice (both treated and untreated). The treated mice were photographed on the first day and on the last day of treatment. Tumor sizes were 750 mm^3 and 850 mm^3 in the untreated mice, versus 130 mm^3 and 150 mm^3 in the treated mice.

Series [7] concerns MCF-7 breast cancer cells. As to the kind of experiment: Survival of MCF-7 cells after single application (cell count, microscopy). The class given is cell-based, human. The following applies: for MCF-7 survival: 48 to 72 hours, 10 μM PJ-34, Tiq-A 100 μM, Phen 50 μM; for killing of MCF-7 cells: Example 7, single application 24 h after seeding, Tiq-A 50/100 μM 72 h, Phen 25 μM 48 h / 50 μM 72 h. The method, then: Cells were cultured in 6-wells multi-dish plates (Nunc Denmark). MCF-7 and MDA231 cells were cultured in 6-wells multi-dish plates (Nunc Denmark). MCF-7 and MDA231 cells were maintained in a medium containing DMEM (cat #01055-1A), 10% Horse serum (cat #04-124-1A), 1% L-Glutamine (cat #03-020-1B), and 1% Pen-Strep Ampho (cat #03-033-1B) (Gibco, Invitrogene, purchased from Rhenium, Jerusalem 91035 Israel.
MCF-7 cells were seeded (about 50,000/well) in 6-well plates. […]. […] […].
The effect of PARP inhibitors on MCF-7 and MDA-MB-231 human breast cancer cells was examined (cells were seeded in about 500,000 cells/[…] well in six-well plates). […]. The damage was irreversible. […]. […] […].

The subject of a further series is cardiomyocytes. The series is described as follows: Effect on quiescent cells: cardiomyocytes. Format: cell-based. Particulars: 10 to 30 μM PJ-34, 100 μM Tiq-A, 50 μM Phen.
A further series deals with brain cortical neurons. As to the kind of experiment: Effect on quiescent cells: brain cortical neurons. The class given is cell-based. Particulars: 10 to 30 μM PJ-34, 100 μM Tiq-A, 50 μM Phen.
Series [8] relates to MDA-MB-231 breast cancer cells. The series is described as follows: Survival of MDA-MB-231 cells after single application.
From the text: Each value is an average value of three measurements obtained in three different experiments.
For series [9], the system named is HCC1937 (triple negative, BRCA deficient) human breast cancer cells. As to the kind of experiment: Combination of MEK and PARP inhibitors on HCC1937 cells. The class given is cell-based. Particulars: 48 hours; PJ-34 5 or 10 μM or Tiq-A 50 μM with 5 μM U0126.
A further series concerns the target T2, HSET (Homo sapiens, UniProt Q9BW19).
T2 sequence (Q9BW19 1-673): T1 sequence (Q9BW19 1-673)
The series is described as follows: Post translational modification of HSET in MDA-MB-231 cells (pI shift, 2-D gel electrophoresis). Particulars: ABT888 at 5-20 μM. Format: cell-based. On the procedure:
Post translational modifications of HSET in MDA-MB-231 breast cancer cells (FIG. 24B-I) were measured by the shifts in its isoelectric point (pI). […] Also, HSET is not modified in normal epithelial cells MCF10A. The vertical lines mark the point of loading of the proteins including HSET in the cell extracts. The arrows mark the shifted pI of HSET. In untreated MDA-MB-231 cells, the largest shift in pI of HSET was to pH 5.6 in the untreated MDA-MB-231 cells.

Chain of PARP-1 (P09874 whole entry, species assumed): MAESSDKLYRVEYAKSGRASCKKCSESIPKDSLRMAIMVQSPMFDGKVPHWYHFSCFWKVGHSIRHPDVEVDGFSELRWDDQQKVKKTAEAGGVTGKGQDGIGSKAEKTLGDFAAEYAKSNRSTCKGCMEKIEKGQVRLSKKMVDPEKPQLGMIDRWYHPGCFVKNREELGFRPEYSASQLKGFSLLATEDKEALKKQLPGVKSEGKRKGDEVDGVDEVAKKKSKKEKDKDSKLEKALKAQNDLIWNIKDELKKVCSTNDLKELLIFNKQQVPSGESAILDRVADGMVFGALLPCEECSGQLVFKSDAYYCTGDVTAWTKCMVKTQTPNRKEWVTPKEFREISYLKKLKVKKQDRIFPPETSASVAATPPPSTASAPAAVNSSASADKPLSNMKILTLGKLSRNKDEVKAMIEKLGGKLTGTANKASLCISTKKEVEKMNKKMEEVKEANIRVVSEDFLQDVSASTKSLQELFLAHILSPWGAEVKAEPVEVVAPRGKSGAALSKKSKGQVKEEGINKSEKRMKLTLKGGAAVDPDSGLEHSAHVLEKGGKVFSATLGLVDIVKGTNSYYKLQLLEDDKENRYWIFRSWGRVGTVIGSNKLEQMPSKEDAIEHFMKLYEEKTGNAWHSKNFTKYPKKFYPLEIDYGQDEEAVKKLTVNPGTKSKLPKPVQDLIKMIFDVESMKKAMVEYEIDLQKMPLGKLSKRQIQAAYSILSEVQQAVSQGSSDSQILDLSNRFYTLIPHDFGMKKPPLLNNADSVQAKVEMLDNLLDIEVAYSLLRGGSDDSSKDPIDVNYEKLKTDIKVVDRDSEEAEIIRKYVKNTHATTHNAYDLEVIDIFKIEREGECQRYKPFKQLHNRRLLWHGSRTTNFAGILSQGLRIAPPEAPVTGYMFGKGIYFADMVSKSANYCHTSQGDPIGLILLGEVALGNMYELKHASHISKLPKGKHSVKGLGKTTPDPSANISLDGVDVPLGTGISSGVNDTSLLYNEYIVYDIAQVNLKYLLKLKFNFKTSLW

In the case of `C[C@]1(c2nc3c(C(N)=O)cccc3[nH]2)CCCN1` [ABT888, reference compound], in the series with α-tubulin with γ-tubulin, the “co-immunoprecipitation of α-tubulin with γ-tubulin” value was “not”. In addition, the “binding of γ-tubulin to kinesin-14/HSET” value in [1] is “did not affect the binding”.

Usually Ki stands for a dissociation constant, usually derived from enzyme kinetics or from competition with a known ligand. As to `CN(C)Cc1ccc(-c2nc3cccc4c3n2CCNC4=O)cc1` [AG14361, reference compound], the Ki at PARP-1 (PARP-1) was less than 0.005 µM. For the same molecule, in the series with MCF-7 brca1+/+ cells, the cells eradicated is listed as 50%.

In the case of `O=C1CCC(=O)N1c1cc(Cc2n[nH]c(=O)c3ccccc23)ccc1F` [KU0058684], the “inhibition of CAPANI cells” value in series [2] is “inhibited”.

Turning to `Cc1nc2c(O)cccc2c(=O)[nH]1` [NU1025], in series [2], the “inhibition of CAPANI cells” value is recorded as “not inhibited”.

Take `CN(C)CC(=O)Nc1ccc2[nH]c(=O)c3ccccc3c2c1` [PJ-34, N-(6-oxo-5,6-dihydro-phenanthridin-2-yl)-N,N-dimethylacetamide, HCl]: in series [3] (3 months after 14-day osmotic pump treatment (Example 6)), the “viability, growth or behavior of the mice” value was “did not affect viability, growth or behavior”. For the same molecule, in series [3] (14-day slow release of PJ-34, follow-up periods (Example 11)), the “vitality, growth, development, or any other behavior of treated mice” value was “did not affect the vitality, growth, development, or any other behavior”. The “cytotoxicity in glioblastoma cancer cells” value (shortened to “cytotoxicity”) in the series on U-87 Glioblastoma cells was “cytotoxic in glioblastoma cancer cells at high concentrations”. Further, the “concentration at which PJ-34 acts as centrosomes de-clustering agent” value in series [4] is given as “above 20 microM”. Besides, the “survival of the other 3 treated mice” value in [5] is listed as “more than 4 months”. Besides, in series [6], the Tumor sizes is 130 mm^3 and 150 mm^3. The cell death entry in [7] (48 hours after single application of 10-20 μM PJ-34) is “more than 99.5%”. Also, the MCF-7 cells eradicated result in [7] (48 hours of incubation with 10 μM PJ-34) is recorded as “More than 99%”.

As usually defined, the EC50 is the midpoint of the concentration-response curve. In the case of `O=c1[nH]c2ccccc2c2ccccc12` [Phen, 6-(5H)-phenanthridinone], the EC50 at PARP-1 was 0.12 µM. For the same molecule, the “cytotoxicity” value in the series with U-87 Glioblastoma cells is given as “cytotoxic in glioblastoma cancer cells at high concentrations”. Also, in the series with cardiomyocytes, the “impairment of quiescent cells” value was “not impaired at all”. Also, in [1], the “binding of γ-tubulin to kinesin-14/HSET” value is listed as “interfered with the binding”. Moreover, the “impairment of quiescent cells” value in the series with brain cortical neurons is reported as “not impaired at all”. In addition, the “killing of MDA-MB-231 breast cancer cells” value in series [8] is “efficient killing”. In addition, in [7], the MCF-7 survival result was “did not survive” and the “killing of MCF-7 cells” value is on record as “efficient in killing MCF-7 cells”.

As for `O=c1[nH]c2sccc2c2ccccc12` [Tiq-A, 4H-thieno[2,3-c]isoquinolin-5-one], in [9], the “effect of combination with MEK inhibitor U0126 versus each inhibitor alone” value is recorded as “synergistic effect”. Besides, the EC50 at PARP-1 is 0.45 µM. For the same molecule, in the series on U-87 Glioblastoma cells, the “cytotoxicity” value is given as “cytotoxic in glioblastoma cancer cells at high concentrations”. The “post translational modification of HSET (pI shift)” value at HSET was “prevent the post translational modification”. For the same molecule, the “impairment of quiescent cells” value in the series with cardiomyocytes was “not impaired at all”. In addition, in series [1], the “binding of γ-tubulin to kinesin-14/HSET” value is listed as “interfered with the binding”. Also, in the series on brain cortical neurons, the “impairment of quiescent cells” value is recorded as “not impaired at all”. Further, the “killing of MDA-MB-231 breast cancer cells” value in series [8] is “efficient killing”. Further, in series [7], the MCF-7 survival result is “did not survive” and the “killing of MCF-7 cells” value is “efficient in killing MCF-7 cells”.
